In general, IC50 refers to the concentration that gives 50% inhibition.

Data on 13 compounds can be found in patent US20220062243A1, “P14-Kinase Inhibitors with Anti-Cancer Activity” (The Board of Trustees of the Leland Stanford Junior …, priority 2019, published 2022).

Each structure is given as a SMILES string.

Sequence of PI4K-IIIβ (Q9UBF8 whole entry): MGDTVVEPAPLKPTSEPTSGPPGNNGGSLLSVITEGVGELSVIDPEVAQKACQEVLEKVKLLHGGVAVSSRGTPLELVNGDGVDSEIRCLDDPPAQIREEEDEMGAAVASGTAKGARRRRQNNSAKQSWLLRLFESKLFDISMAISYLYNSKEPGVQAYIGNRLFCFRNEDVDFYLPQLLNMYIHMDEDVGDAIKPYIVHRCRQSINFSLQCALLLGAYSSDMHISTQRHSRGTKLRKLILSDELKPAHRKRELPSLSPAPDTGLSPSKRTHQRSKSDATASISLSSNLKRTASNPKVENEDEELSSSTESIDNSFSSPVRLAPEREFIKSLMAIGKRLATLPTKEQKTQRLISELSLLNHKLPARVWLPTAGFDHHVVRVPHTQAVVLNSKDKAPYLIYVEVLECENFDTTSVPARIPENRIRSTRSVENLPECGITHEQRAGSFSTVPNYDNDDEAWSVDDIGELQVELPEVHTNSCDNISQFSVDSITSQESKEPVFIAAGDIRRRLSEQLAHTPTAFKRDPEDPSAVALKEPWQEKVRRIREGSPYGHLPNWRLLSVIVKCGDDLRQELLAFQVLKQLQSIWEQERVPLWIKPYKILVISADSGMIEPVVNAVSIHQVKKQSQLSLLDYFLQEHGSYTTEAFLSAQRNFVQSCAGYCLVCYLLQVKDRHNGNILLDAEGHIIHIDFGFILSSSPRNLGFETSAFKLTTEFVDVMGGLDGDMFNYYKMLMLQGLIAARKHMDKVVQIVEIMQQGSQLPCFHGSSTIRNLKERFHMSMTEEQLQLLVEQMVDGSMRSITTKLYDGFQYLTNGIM

The first experiment has as its target PI4K-IIIβ (Homo sapiens, UniProt Q9UBF8). The experiment is described as follows: PI-kinase assay (membrane capture assay for lipid kinase activity), PI4KIIIβ. The following applies: read-out: PI4KIIIβ kinase activity (IC50 class). The format is biochemical. As to the method: PI4-kinase inhibition can be determined by a kinase activity assay, e.g., by an assay that determines the level of incorporation of radiolabeled phosphate from [γ-^32P]-ATP into a substrate molecule after treatment with a subject compound, relative to a control, by measuring the beta-particle emission rate using a scintillation counter or phosphorimaging.
PI-kinase assay: Compounds are tested in C.1.1. PI kinase assays as described by Shokat et al., “A membrane capture assay for lipid kinase activity.” Nat. Protoc. […] Selected compounds of Table 1 and 2 were prepared and tested for inhibition activity in a variety of kinase assays.
In the case of `COc1ccc(-c2sc(NCC(C)C)nc2C)cc1S(=O)(=O)NC1CCCC(O)C1` (stereo not shown) [Compound S-223, N-(3-hydroxycyclohexyl)-5-[2-(isobutylamino)-4-methyl-thiazol-5-yl]-2-methoxy-benzenesulfonamide;2,2,2-trifluoroacetic acid], the IC50 is below 100 nM.
As for `COc1ccc(-c2sc(NC(=O)CC3CCOCC3)nc2C)cc1S(=O)(=O)Nc1cccc(C)c1` [Compound S-226, N-[5-[4-methoxy-3-(m-tolylsulfamoyl)phenyl]-4-methyl-thiazol-2-yl]-2-tetrahydropyran-4-yl-acetamide], the IC50 was below 100 nM.
For the compound `COc1ccc(-c2sc(NC(=O)CC3CCOCC3)nc2C)cc1S(=O)(=O)Nc1ccc(O)cc1` [Compound S-227, N-[5-[3-[(4-hydroxyphenyl)sulfamoyl]-4-methoxy-phenyl]-4-methyl-thiazol-2-yl]-2-tetrahydropyran-4-yl-acetamide], the IC50 was below 100 nM.
As to `COc1ccc(-c2sc(NC(=O)CC3CCOCC3)nc2C)cc1S(=O)(=O)Nc1ccccc1F` [Compound S-230, N-[5-[3-[(2-fluorophenyl)sulfamoyl]-4-methoxy-phenyl]-4-methyl-thiazol-2-yl]-2-tetrahydropyran-4-yl-acetamide], the concentration for half-maximal inhibition (IC50) is below 100 nM.
In the case of `COc1ccc(-c2sc(NC(=O)CC3CCOCC3)nc2C)cc1S(=O)(=O)Nc1ccc(O)cc1C` [Compound S-231, N-[5-[3-[(4-hydroxy-2-methyl-phenyl)sulfamoyl]-4-methoxy-phenyl]-4-methyl-thiazol-2-yl]-2-tetrahydropyran-4-yl-acetamide], the concentration for half-maximal inhibition (IC50) was below 100 nM.
In the case of `COc1ncc(-c2sc(NC(=O)CC3CCOCC3)nc2C)cc1S(=O)(=O)Nc1ccc(F)cc1F` [Compound S-258], the half-maximal inhibitory concentration (IC50) fell in the range of 1000 to 10000 nM.
Turning to `COc1ncc(-c2sc(NC(=O)CC3CCOCC3)nc2C)cc1S(=O)(=O)Nc1cccc(O)c1` [Compound S-259], the IC50 was below 100 nM.
Consider `COc1ncc(-c2sc(NC(=O)CC3CCOCC3)nc2C)cc1S(=O)(=O)Nc1ccc(F)cc1F` [Compound S-260], for which the IC50 was below 100 nM.
Consider `COc1ncc(-c2sc(NC(=O)CC3CCOCC3)nc2C)cc1S(=O)(=O)Nc1ccc(O)cc1` [Compound S-261], for which the IC50 was below 100 nM.
The same measure, in the same setting: in the case of `COc1ncc(-c2sc(NC(=O)CC3CCOCC3)nc2C)cc1S(=O)(=O)N[C@H]1CC[C@@H](O)CC1` [Compound S-262] it was below 100 nM; in that of `COc1ncc(-c2sc(NC(=O)CC3CCOCC3)nc2C)cc1S(=O)(=O)NC1CCCC(O)C1` (stereo not shown) [Compound S-263], below 100 nM.
Take `COc1ncc(-c2sc(NC(=O)CC3CCOCC3)nc2C)cc1S(=O)(=O)Nc1cccc(C(=O)O)c1` [Compound S-265]: the half-inhibitory concentration (IC50) was below 100 nM.

The next experiment deals with PI4KIIIα (Homo sapiens, UniProt P42356).
Sequence of PI4KIIIα (P42356 whole entry): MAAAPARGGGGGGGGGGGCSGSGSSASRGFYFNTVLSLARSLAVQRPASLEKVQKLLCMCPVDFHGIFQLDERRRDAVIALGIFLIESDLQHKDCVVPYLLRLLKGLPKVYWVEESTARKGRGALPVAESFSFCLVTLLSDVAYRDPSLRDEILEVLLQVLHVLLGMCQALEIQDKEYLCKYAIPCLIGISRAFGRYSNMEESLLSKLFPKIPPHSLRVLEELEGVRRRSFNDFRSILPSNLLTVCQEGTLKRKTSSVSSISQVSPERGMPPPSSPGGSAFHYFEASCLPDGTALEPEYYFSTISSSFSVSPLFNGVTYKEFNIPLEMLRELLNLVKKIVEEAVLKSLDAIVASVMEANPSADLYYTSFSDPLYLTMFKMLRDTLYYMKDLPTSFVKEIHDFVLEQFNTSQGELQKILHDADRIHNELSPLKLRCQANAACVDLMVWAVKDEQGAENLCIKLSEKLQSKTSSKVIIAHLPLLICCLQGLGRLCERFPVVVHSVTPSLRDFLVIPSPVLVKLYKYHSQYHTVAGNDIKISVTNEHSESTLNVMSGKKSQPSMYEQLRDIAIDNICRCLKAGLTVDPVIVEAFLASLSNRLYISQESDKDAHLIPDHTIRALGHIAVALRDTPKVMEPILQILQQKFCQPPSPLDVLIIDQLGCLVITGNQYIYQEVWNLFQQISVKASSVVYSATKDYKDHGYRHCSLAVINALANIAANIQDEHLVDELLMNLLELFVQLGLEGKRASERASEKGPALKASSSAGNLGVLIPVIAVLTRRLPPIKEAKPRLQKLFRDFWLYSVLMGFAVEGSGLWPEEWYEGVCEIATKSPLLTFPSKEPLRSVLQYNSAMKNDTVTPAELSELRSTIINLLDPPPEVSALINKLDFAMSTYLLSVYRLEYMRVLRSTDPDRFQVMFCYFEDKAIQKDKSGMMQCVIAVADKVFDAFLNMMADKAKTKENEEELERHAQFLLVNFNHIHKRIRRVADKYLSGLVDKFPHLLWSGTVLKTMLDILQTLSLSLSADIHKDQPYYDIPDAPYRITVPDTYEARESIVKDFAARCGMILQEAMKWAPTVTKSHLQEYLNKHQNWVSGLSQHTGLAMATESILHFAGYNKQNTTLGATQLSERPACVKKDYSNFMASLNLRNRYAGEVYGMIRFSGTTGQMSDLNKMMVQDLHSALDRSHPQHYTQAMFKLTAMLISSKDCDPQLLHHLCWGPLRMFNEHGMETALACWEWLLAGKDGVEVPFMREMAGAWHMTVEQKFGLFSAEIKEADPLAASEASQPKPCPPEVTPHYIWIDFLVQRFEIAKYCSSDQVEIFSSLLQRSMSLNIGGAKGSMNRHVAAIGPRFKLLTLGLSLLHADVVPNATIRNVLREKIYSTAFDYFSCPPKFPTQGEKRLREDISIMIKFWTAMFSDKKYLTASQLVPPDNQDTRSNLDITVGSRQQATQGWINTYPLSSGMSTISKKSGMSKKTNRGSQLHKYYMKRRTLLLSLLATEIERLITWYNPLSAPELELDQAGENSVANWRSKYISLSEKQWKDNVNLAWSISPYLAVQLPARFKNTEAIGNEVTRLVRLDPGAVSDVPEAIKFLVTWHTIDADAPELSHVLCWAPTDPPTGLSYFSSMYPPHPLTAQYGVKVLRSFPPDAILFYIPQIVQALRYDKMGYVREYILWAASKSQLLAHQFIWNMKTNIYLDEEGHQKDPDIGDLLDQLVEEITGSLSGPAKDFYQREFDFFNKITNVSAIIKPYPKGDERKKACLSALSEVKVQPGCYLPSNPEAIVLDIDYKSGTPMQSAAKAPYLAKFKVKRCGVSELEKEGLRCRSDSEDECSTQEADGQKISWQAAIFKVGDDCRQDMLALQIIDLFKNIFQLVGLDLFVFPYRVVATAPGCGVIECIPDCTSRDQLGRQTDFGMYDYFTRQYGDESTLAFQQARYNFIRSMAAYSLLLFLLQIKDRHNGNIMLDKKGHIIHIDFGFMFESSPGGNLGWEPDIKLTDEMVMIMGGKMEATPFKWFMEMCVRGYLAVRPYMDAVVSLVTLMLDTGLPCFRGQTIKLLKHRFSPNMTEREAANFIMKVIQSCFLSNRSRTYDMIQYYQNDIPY
Experiment: not given
As to conditions: weak inhibition; cited from earlier work.
`COc1ccc(-c2sc(NC(=O)C(C)(C)C)nc2C)cc1S(=O)(=O)Nc1ccc(O)cc1` [PI4KIIIbeta-IN-10]: the IC50 is around 3000 nM.
